The IC50 is the concentration at which inhibition is half-maximal. A higher IC50 goes with weaker potency.

SMILES strings stand for the structures. A value given as a limit tells only on which side of the number the result lay.

This is an account of results in patent US20110217265A1, “Screening for Inhibitors of HCV Amphipathic Helix (AH) Function” (priority 2008, published 2011).

In one data set the test system is Huh7.5 cells. Nature of the data set: Alamar Blue cell viability assay. The class given is cell-based, human. The procedure: Antiviral Assays of Compounds. Subconfluent Huh7.5 cells were trypsinized and collected by centrifugation at 700 g for 5 min. The cells were then washed three times in ice-cold RNasefree PBS buffer (BioWhittaker) and resuspended at 1.5×10^7 cells·ml^−1 in PBS buffer. Wild-type FL-J6/JFH-5′C19Rluc2AUbi and Bart79I-luc RNAs for electroporation were generated by in vitro transcription of XbaI (FL-J6/JFH-5′C19Rluc2AUbi) and ScaI (Bart791-luc)-linearized DNA templates using the T7 MEGAscript kit (Ambion), followed by phenol-chloroform purification and DEPC water suspension, 5 μg of RNA were mixed with 400 μl of washed Huh7.5 cells in a 2-mm-gap cuvette (BTX) and immediately pulsed (0.82 kV (FL-J6/JFH-5′C19Rluc2AUbi) and 0.68 kV (Bart79I-luc), five […] pulses) with a BTX-830 electroporator. After 10 min recovery at 25° C., pulsed cells were diluted into 20 ml of pre-warmed growth medium. Cells from several electroporations were pooled to a common stock and seeded in 96-well plates (17,000-20,000 cells per well). After 24 hr, compounds were added to the cells and media changes were performed daily with fresh compounds. After 72 hr of treatment, cells were incubated for 2 hr at 37° C. in the presence of 10% Alamar Blue reagent (TREK Diagnostic Systems) to assess for cytotoxicity. […] The signal was normalized relative to untreated samples. Viral RNA replication was determined using Renilla (FL-J6/JFH-5′C19Rluc2AUbi) or firefly (Bart791-luc) luciferase assays, according to the manufacturer's (Promega) directions. The same samples subjected to the viability assay described below were analyzed in this assay. According to the manufacturer protocol, cells were washed with PBS buffer and shaken at room temperature for 15 min in 20 μl of lysis buffer. Reporter assays were performed directly in the wells of the culture plates by injecting 100 μl of the assay substrate into each well. Luminescence was measured over 10 seconds with a 2-second delay using a Berthold LB 96 V luminometer. Signal was normalized relative to untreated samples or samples grown in the presence of the corresponding concentration of DMSO. Experiments were repeated three times, each time with 4 replicates.
Background: Resazurin is reduced to fluorescent resorufin, in cell work by metabolically active cells.

Another data set deals with HCV 1b RNA replicon. Kind of data set: 1b HCV RNA replicon assay, Huh7 cell line with stable luciferase reporter. The data set is classed as cell-based, Hepatitis C Virus genotype 1b. The following applies: Huh7, stable LUC reporter; for IC50: Hepatitis C virus, Huh-7. A general note: In antiviral work, replicon cells carry a viral genome segment that copies itself.
The next data set deals with 2a HCV RNA replicon. Nature of the data set: 2a HCV RNA replicon assay (FL-J6/JFH-5'C19Rluc2AUbi, luciferase). The data set is classed as cell-based, Hepatitis C Virus genotype 2a. The following applies: Hepatitis C virus, read-out: 2a (%) Percent of virus activity remaining in the presence of the compound. The text has this:
Plasmids. Bart79I, a high-efficiency subgenomic replicon of HCV (28), harbors the neomycin resistance gene (neo) and the HCV nonstructural proteins. The Bart-Luciferase plasmid, Bart79I-luc, was cloned from the Bart791 parent (29) and the pGL3-Basic parent (Promega). In brief, a NotI site was introduced after the 15th amino acid of Core in Bart791 using PCR mutagenesis. The plasmid pcDNA3.1-NS4B, which encodes the Con1 NS4B sequence and was used to study the protein stability of the wild type and mutant NS4Bs, was described previously. To introduce the M2 mutation into the 4BAH2 of plasmids encoding HCV replicons or NS4B, the nucleotide sequence GCG that encodes for alanine at NS4B amino acid position 51 was changed to GAG (encoding for glutamate) and the nucleotide sequence TGG that encodes for tryptophan at amino acid position 55 was changed to GAT (encoding for aspartate) through the use of Quick-ChangeTMXL site-directed mutagenesis kit (Stratagene, La Jolla, Calif.) as described by the manufacturer and confirmed by sequencing. FL-J6/JFH-5′C19Rluc2AUbi, which is a monocistronic, full-length HCV genome that expresses Renilla luciferase (Rluc) and was derived from the previously described infectious genotype 2a HCV genome J6/JFH1.
Antiviral Assays of Compounds. Subconfluent Huh7.5 cells were trypsinized and collected by centrifugation at 700 g for 5 min. The cells were then washed three times in ice-cold RNasefree PBS buffer (BioWhittaker) and resuspended at 1.5×10^7 cells·ml^−1 in PBS buffer. Wild-type FL-J6/JFH-5′C19Rluc2AUbi and Bart79I-luc RNAs for electroporation were generated by in vitro transcription of XbaI (FL-J6/JFH-5′C19Rluc2AUbi) and ScaI (Bart791-luc)-linearized DNA templates using the T7 MEGAscript kit (Ambion), followed by phenol-chloroform purification and DEPC water suspension, 5 μg of RNA were mixed with 400 μl of washed Huh7.5 cells in a 2-mm-gap cuvette (BTX) and immediately pulsed (0.82 kV (FL-J6/JFH-5′C19Rluc2AUbi) and 0.68 kV (Bart79I-luc), five […] pulses) with a BTX-830 electroporator. After 10 min recovery at 25° C., pulsed cells were diluted into 20 ml of pre-warmed growth medium. Cells from several electroporations were pooled to a common stock and seeded in 96-well plates (17,000-20,000 cells per well). After 24 hr, compounds were added to the cells and media changes were performed daily with fresh compounds. After 72 hr of treatment, cells were incubated for 2 hr at 37° C. in the presence of 10% Alamar Blue reagent (TREK Diagnostic Systems) to assess for cytotoxicity. Plates were then scanned and fluorescence was detected by using a FLEXstation II 384 (Molecular Devices). The signal was normalized relative to untreated samples. Viral RNA replication was determined using Renilla (FL-J6/JFH-5′C19Rluc2AUbi) or firefly (Bart791-luc) luciferase assays, according to the manufacturer's (Promega) directions. The same samples subjected to the viability assay described below were analyzed in this assay. According to the manufacturer protocol, cells were washed with PBS buffer and shaken at room temperature for 15 min in 20 μl of lysis buffer. Reporter assays were performed directly in the wells of the culture plates by injecting 100 μl of the assay substrate into each well. Luminescence was measured over 10 seconds with a 2-second delay using a Berthold LB 96 V luminometer. Signal was normalized relative to untreated samples or samples grown in the presence of the corresponding concentration of DMSO. Experiments were repeated three times, each time with 4 replicates.

Another data set addresses hERG (Homo sapiens, UniProt Q12809). Kind of data set: hERG IC50. (hERG is a cardiac potassium channel; its block is linked to QT prolongation.)

Sequence of hERG (Q12809 whole entry): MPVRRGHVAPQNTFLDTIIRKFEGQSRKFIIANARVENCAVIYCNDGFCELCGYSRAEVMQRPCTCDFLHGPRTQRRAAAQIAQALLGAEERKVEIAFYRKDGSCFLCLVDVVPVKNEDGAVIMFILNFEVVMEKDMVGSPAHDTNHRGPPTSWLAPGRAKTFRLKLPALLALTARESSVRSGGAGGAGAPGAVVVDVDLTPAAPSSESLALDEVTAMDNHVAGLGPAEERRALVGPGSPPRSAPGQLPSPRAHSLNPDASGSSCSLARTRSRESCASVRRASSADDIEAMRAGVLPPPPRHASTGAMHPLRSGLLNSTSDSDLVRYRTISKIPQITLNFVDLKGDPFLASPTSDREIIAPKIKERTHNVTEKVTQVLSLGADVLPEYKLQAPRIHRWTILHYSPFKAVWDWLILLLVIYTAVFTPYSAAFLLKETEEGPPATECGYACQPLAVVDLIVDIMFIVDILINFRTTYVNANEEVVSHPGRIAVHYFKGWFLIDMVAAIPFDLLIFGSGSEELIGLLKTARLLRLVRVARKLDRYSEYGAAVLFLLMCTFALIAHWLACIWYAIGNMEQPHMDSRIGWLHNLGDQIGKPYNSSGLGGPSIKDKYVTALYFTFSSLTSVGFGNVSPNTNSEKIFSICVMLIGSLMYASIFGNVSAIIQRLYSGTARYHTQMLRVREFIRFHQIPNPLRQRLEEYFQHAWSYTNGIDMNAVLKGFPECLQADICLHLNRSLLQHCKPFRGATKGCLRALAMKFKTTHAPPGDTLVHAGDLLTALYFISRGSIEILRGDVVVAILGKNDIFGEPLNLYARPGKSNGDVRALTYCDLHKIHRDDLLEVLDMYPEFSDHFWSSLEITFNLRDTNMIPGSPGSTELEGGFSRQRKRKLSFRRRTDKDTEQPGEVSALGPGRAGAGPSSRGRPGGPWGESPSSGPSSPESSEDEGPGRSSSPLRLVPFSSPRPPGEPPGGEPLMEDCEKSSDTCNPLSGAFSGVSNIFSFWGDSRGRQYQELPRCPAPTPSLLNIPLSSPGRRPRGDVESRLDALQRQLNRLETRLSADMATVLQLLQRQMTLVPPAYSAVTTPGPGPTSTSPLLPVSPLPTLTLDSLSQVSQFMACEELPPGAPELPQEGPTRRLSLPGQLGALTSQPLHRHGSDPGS

In the case of `CC(C)CN(C)c1nc(N)c(C(=O)NCC2CCCCC2)nc1Cl.O=C(O)C(F)(F)F` [ID 320, 3-amino-6-chloro-N-(cyclohexylmethyl)-5-(isobutyl(methyl)amino)pyrazine-2-carboxamide 2,2,2-trifluoroacetate], the “Cell Viability (%), alamar blue” value in the data set on Huh7.5 cells (5 μM) worked out at 80%. Also, the “Cell Viability (%), alamar blue” value in the data set on Huh7.5 cells (10 μM) came out at 59%. Also, the “1b assay IC50” value in the data set with HCV 1b RNA replicon was “inactive”. In the data set on 2a HCV RNA replicon, the activity at 5 µM is 37% and the activity at 10 µM was determined as 17%.

For `Cc1cc(Cl)ncc1NC(=O)c1nc(Cl)c(N(C)CC(C)C)nc1N` [ID 293, 3-amino-6-chloro-N-(6-chloro-4-methylpyridin-3-yl)-5-(isobutyl(methyl)amino)pyrazine-2-carboxamide bis(2,2,2-trifluoroacetate)], the “Cell Viability (%), alamar blue” value in the data set on Huh7.5 cells (5 μM) is 71%. In addition, in the data set with Huh7.5 cells (10 μM), the “Cell Viability (%), alamar blue” value came to 66%. For the same molecule, the “1b assay IC50” value in the data set on HCV 1b RNA replicon is “inactive”. Moreover, in the data set on 2a HCV RNA replicon, the activity at 5 µM turned out to be 34% and the activity at 10 µM is 28%.

For the molecule `CC(C)CN(C)c1nc(N)c(C(=O)NC2CCCCC2)nc1Cl.O=C(O)C(F)(F)F` [ID 313, 3-amino-6-chloro-N-cyclohexyl-5-(isobutyl(methyl)amino)pyrazine-2-carboxamide 2,2,2-trifluoroacetate], the “Cell Viability (%), alamar blue” value in the data set on Huh7.5 cells (5 μM) is recorded as 68%. Besides, the “Cell Viability (%), alamar blue” value with Huh7.5 cells (10 μM) is 48%. The molecule also had an IC50 in the data set with HCV 1b RNA replicon of over 25 µM. Besides, in the data set on 2a HCV RNA replicon, the activity at 5 µM turned out to be 33% and the activity at 10 µM was determined as 12%.

`Cc1ccncc1NC(=O)c1nc(Cl)c(N(C)c2ccccc2)nc1N` [ID 465, 3-amino-6-chloro-5-(methyl(phenyl)amino)-N-(4-methylpyridin-3-yl)pyrazine-2-carboxamide 2,2,2-trifluoroacetate]: the “Cell Viability (%), alamar blue” value in the data set on Huh7.5 cells (5 μM) was 89%. Besides, the “Cell Viability (%), alamar blue” value in the data set on Huh7.5 cells (10 μM) came to 78%. Moreover, in the data set on 2a HCV RNA replicon, the activity at 5 µM turned out to be 60% and the activity at 10 µM came out at 31%. Also, on hERG, the IC50 is over 10 µM.

As to `CC(C)CN(C)c1nc(N)c(C(=O)NC2CCNCC2)nc1Cl.O=C(O)C(F)(F)F` [ID 319, 3-amino-6-chloro-5-(isobutyl(methyl)amino)-N-(piperidin-4-yl)pyrazine-2-carboxamide 2,2,2-trifluoroacetate], in the data set with Huh7.5 cells (5 μM), the “Cell Viability (%), alamar blue” value is given as 87%. The “Cell Viability (%), alamar blue” value with Huh7.5 cells (10 μM) came to 75%. This molecule also had an IC50 with HCV 1b RNA replicon of 6.9 µM. In the data set with 2a HCV RNA replicon, the activity at 5 µM amounted to 37% and the activity at 10 µM amounted to 11%.

Consider `Cc1ccncc1NC(=O)c1nc(Cl)c(NCC(C)C)nc1N` [ID 464, 3-amino-6-chloro-5-(isobutylamino)-N-(4-methylpyridin-3-yl)pyrazine-2-carboxamide 2,2,2-trifluoroacetate], for which, in the data set on Huh7.5 cells (5 μM), the “Cell Viability (%), alamar blue” value is given as 95%. In the data set with Huh7.5 cells (10 μM), the “Cell Viability (%), alamar blue” value is given as 85%. Further, in the data set on 2a HCV RNA replicon, the activity at 5 µM is 64% and the activity at 10 µM stood at 44%. The IC50 on hERG was over 10 µM.

As for `CC(C)CN(C)c1nc(N)c(C(=O)Nc2cccnc2)nc1Cl.Cl` [ID 202, 3-amino-6-chloro-5-(isobutyl(methyl)amino)-N-(pyridin-3-yl)pyrazine-2-carboxamide hydrochloride], the “Cell Viability (%), alamar blue” value in the data set with Huh7.5 cells (5 μM) amounted to 48%; with Huh7.5 cells (10 μM), 43%. Also, the activity at 5 µM with 2a HCV RNA replicon was 6%. For the same molecule, the activity at 10 µM in the data set with 2a HCV RNA replicon stood at 4%. For the same molecule, the IC50 on hERG was determined as 1.5 µM.

Consider `CC(C)CN(C)c1nc(N)c(C(=O)NCc2cccnc2)nc1Cl.O=C(O)C(F)(F)F` [ID 341, 3-amino-6-chloro-5-(isobutyl(methyl)amino)-N-(pyridin-3-ylmethyl)pyrazine-2-carboxamide 2,2,2-trifluoroacetate], for which the “Cell Viability (%), alamar blue” value in the data set on Huh7.5 cells (5 μM) worked out at 77%. In addition, the “Cell Viability (%), alamar blue” value in the data set on Huh7.5 cells (10 μM) was determined as 65%. Moreover, the “1b assay IC50” value with HCV 1b RNA replicon is “inactive”. Further, in the data set on 2a HCV RNA replicon, the activity at 5 µM stood at 30% and the activity at 10 µM is 15%.

For `Cc1ccncc1NC(=O)c1nc(Cl)c(N2CCCCC2)nc1N` [ID 415, 3-amino-6-chloro-N-(4-methylpyridin-3-yl)-5-(piperidin-1-yl)pyrazine-2-carboxamide 2,2,2-trifluoroacetate], the figures for the “Cell Viability (%), alamar blue” value with Huh7.5 cells (5 μM) and in the data set on Huh7.5 cells (10 μM) were 71% and 65%, respectively. Moreover, the “1b assay IC50” value with HCV 1b RNA replicon was “inactive”. In the data set on 2a HCV RNA replicon, the activity at 5 µM worked out at 27%. Also, the activity at 10 µM in the data set with 2a HCV RNA replicon worked out at 10%.

For the molecule `CC(C)CN(C)c1nc(N)c(C(=O)NCc2ccncc2)nc1Cl.O=C(O)C(F)(F)F` [ID 342, 3-amino-6-chloro-5-(isobutyl(methyl)amino)-N-(pyridin-4-ylmethyl)pyrazine-2-carboxamide 2,2,2-trifluoroacetate], the “Cell Viability (%), alamar blue” value in the data set on Huh7.5 cells (5 μM) is recorded as 69%. Also, in the data set on Huh7.5 cells (10 μM), the “Cell Viability (%), alamar blue” value worked out at 56%. The “1b assay IC50” value with HCV 1b RNA replicon is “inactive”. Further, in the data set with 2a HCV RNA replicon, the activity at 5 µM came out at 22% and the activity at 10 µM is 12%.

Consider `CC(C)CN(C)c1nc(N)c(C(=O)NCc2ccccc2)nc1Cl` [ID 292, 3-amino-N-benzyl-6-chloro-5-(isobutyl(methyl)amino)pyrazine-2-carboxamide 2,2,2-trifluoroacetate], for which, in the data set with Huh7.5 cells (5 μM), the “Cell Viability (%), alamar blue” value was 80%. Also, the “Cell Viability (%), alamar blue” value with Huh7.5 cells (10 μM) was determined as 62%. In addition, in the data set on HCV 1b RNA replicon, the “1b assay IC50” value is “inactive”. Moreover, in the data set with 2a HCV RNA replicon, the activity at 5 µM was determined as 39% and the activity at 10 µM was 25%.

As to `CC(C)CN(C)c1nc(N)c(C(=O)NCc2cccs2)nc1Cl` [ID 150, 3-amino-6-chloro-5-(isobutyl(methyl)amino)-N-(thiophen-2-ylmethyl)pyrazine-2-carboxamide 2,2,2-trifluoroacetate], in the data set on Huh7.5 cells (5 μM), the “Cell Viability (%), alamar blue” value was over 100%. For the same molecule, the “Cell Viability (%), alamar blue” value in the data set with Huh7.5 cells (10 μM) came out at 77%. In addition, in the data set with 2a HCV RNA replicon, the activity at 5 µM was 65% and the activity at 10 µM amounted to 48%.
